Reference: BigSolDB 2.1

CC(C)(C)OC(=O)N[C@@H](CCC(N)=O)C(=O)O
solubility (mole fraction)
Settings | 283.15 K | 288.15 K | 293.15 K | 298.15 K | 303.15 K | 308.15 K | 313.15 K | 318.15 K | 323.15 K
in 2-butanone | 0.0208 | 0.0219 | 0.0247 | 0.0294 | 0.035 | 0.0408 | 0.0517 | 0.068 | 0.0995
in acetone | 0.0586 | 0.0675 | 0.0797 | 0.0959 | 0.105 | 0.127 | 0.146 | 0.168 | 0.187
in acetonitrile | 0.00293 | 0.00389 | 0.00493 | 0.0064 | 0.008 | 0.0113 | 0.0165 | 0.0243 | 0.0356
in ethanol | 0.13 | 0.139 | 0.148 | 0.155 | 0.165 | 0.177 | 0.191 | 0.202 | –
in ethyl acetate | 0.00199 | 0.00241 | 0.00301 | 0.00377 | 0.00475 | 0.00596 | 0.00774 | 0.0102 | 0.0145
in isobutanol | 0.0317 | 0.0398 | 0.0479 | 0.055 | 0.0676 | 0.0766 | 0.0843 | 0.0943 | 0.108
in isopropanol | 0.0536 | 0.0626 | 0.0789 | 0.0922 | 0.108 | 0.124 | 0.153 | 0.175 | 0.198
in methyl acetate | 0.00534 | 0.00588 | 0.00699 | 0.00843 | 0.0115 | 0.0173 | 0.0254 | 0.0393 | 0.0649
in n-butanol | 0.0427 | 0.0487 | 0.0554 | 0.0649 | 0.0748 | 0.0924 | 0.119 | 0.146 | –
in n-pentanol | 0.0343 | 0.0352 | 0.0382 | 0.0417 | 0.0481 | 0.0573 | 0.07 | 0.0946 | –
in n-propanol | 0.057 | 0.0698 | 0.0803 | 0.0938 | 0.116 | 0.135 | 0.162 | 0.207 | –
in water | 0.00718 | 0.00807 | 0.00935 | 0.0126 | 0.0205 | 0.0307 | 0.0554 | 0.0905 | –
